Laboratory results reported in patent US9611223B2, “3-aryl-5-substituted-isoquinolin-1-one compounds and their therapeutic use” (INSTITUTE OF CANCER RESEARCH: ROYAL CANCER HOSPITAL (THE), priority 2013, dated 2017).
Read-outs that look alike come from different tables or passages of the source.

Key:
Type in all cases: cell-based
[1] = tested on: HT55 cells; assay: Long-Term Clonogenic Assay (HT55 cells); conditions: Homo sapiens, 12-14 days, read-out: cell inhibitory SF50 (HT55)
Method: (§1) Clonogenic Inhibition in DLD1 or HT55 Cells
(§2) In order to determine the efficacy of chronic dosing of putative TNKS inhibitors, long term clonogenic or ‘colony formation’ assays were carried out. This included the sparse seeding of cells in a 6-well dish followed by continuous dosing of cells over 12-14 days (depending on relative cell growth). Appropriate cell lines (DLD1 or HT55) were seeded at 500 cells/well in a 6-well dish in DMEM supplemented with FBS. After overnight incubation, cells were treated with the appropriate putative TNKS inhibitor at 10 μM, 3 μM, 1 μM, 0.30 μM, 0.1 μM and 0 μM at 0.2-1% final DMSO concentration (cell line dependent) in DMEM supplemented with 10% FBS (DLD1 cells were dosed in DMEM supplemented with 0.5% FBS). Dosages were carried out in triplicate. Cell media containing compound or DMSO only was replenished every 48 hours. On termination of the assay, plates were read with Cell Titre Glo reagent and luminescence measured on an appropriate plate reader.
(§3) The data was normalised to the DMSO control and was expressed as surviving fraction as a function of inhibitor dose. Dose response curves used to determine SF50 values were Log transformed and analysed by non-linear regression analysis (variable slope) using Prism (GraphPad Software, Inc).

[2] = tested on: DLD1 cells; assay: Long-Term Clonogenic Assay (DLD1 cells); conditions: Homo sapiens, DLD-1, 12-14 days, read-out: cell inhibitory SF50 (DLD1)
Method: as §1, §2, §3

[3] = tested on: COLO320DM cells; assay: Tumour Cell Inhibition Assay (COLO320DM cells); conditions: Homo sapiens, COLO 320DM, 120 h, five day exposure, read-out: cell inhibitory SF50 (COLO320DM)
Method: (§4) Tumour Cell Inhibition in Colorectal Tumour Cells
(§5) In order to determine the efficacy of acute dosing of putative TNKS inhibitors, five day exposure cell viability assays were carried out. This included the sparse seeding of cells in a 96-well plate followed by continuous dosing of cells over a five day period.
(§6) Appropriate cell lines (HT55, COLO320DM and SW620) were seeded at 500 cells/well in a 96-well plate in MEM (HT55), RPMI (COLO320DM) or DMEM (SW620) supplemented with FBS. After overnight incubation, cells were treated with the appropriate putative TNKS inhibitor in 6 or 10 concentrations ranging from 0 μM to 10 μM at 0.2% final DMSO concentration in appropriate media supplemented with 10% or 0.5% FBS. Dosages were carried out in triplicate. Termination of the assay and measurement of cell viability was achieved by the use of Cell Titre Glo reagent and luminescence measurement on an appropriate plate reader.
(§7) Dose response curves used to determine SF50 values were Log transformed and analysed by non-linear regression analysis (variable slope) using Prism (GraphPad Software, Inc).

[4] = tested on: HT55 cells; assay: Tumour Cell Inhibition Assay (HT55 cells); conditions: Homo sapiens, HT55, 120 h, Tumour Cell Inhibition Assay, five day exposure
Method: as §4, §5, §6, §7

[5] = tested on: SW620 cells; assay: Tumour Cell Inhibition Assay (SW620 cells); conditions: Homo sapiens, SW-620, 120 h, five day exposure
Method: as §4, §5, §6, §7

Row | IC50 [1] | IC50 [2] | IC50 [3] | IC50 ([4]; replicate, read-out: cell inhibitory SF50 (HT55), replicate) | IC50 ([5]; read-out: cell inhibitory SF50 (SW620)) | IC50 ([5]; replicate, read-out: cell inhibitory SF50 (SW620), replicate) | IC50 ([4]; read-out: cell inhibitory SF50 (HT55)) | SMILES
1 | < 5 µM | 2.3 µM | < 5 µM |  |  |  |  | CN1CCN(Cc2ccc(-c3cc4c(C#N)cccc4c(=O)[nH]3)cc2)CC1 [IQ-002, 3-[4-(4-Methyl-piperazin-1-ylmethyl)-phenyl]-1-oxo-1,2-dihydro-isoquinoline-5-carbonitrile]
2 | < 5 µM |  | < 5 µM |  |  |  |  | CN1CCN(Cc2ccc(-c3cc4c(C#N)cc(F)cc4c(=O)[nH]3)cc2)CC1 [IQ-014]
3 | < 5 µM |  | < 5 µM | 1.8 µM | 3 µM | 1.7 µM |  | CN(C)C1CCN(Cc2ccc(-c3cc4c(C#N)cccc4c(=O)[nH]3)cc2)CC1 [IQ-012]
4 | < 5 µM |  | < 5 µM |  |  |  | < 5 µM | CN(C)C1CCN(Cc2ccc(-c3cc4c(C#N)cccc4c(=O)[nH]3)cc2)C1 (stereo not shown) [IQ-011]
